Laboratory results as given in PubChem BioAssay (NCI).
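The concentration for 50% growth inhibition is given as GI50. TGI marks complete inhibition of growth.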

Legend:
Assay in all cases: DTP human tumour cell line panel, 384-well format
SF-295 CNS = system: SF-295 CNS
HCT-15 colon = system: HCT-15 colon
UO-31 renal = system: UO-31 renal
K-562 leukemia = system: K-562 leukemia
SNB-19 CNS = system: SNB-19 CNS
SF-268 CNS = system: SF-268 CNS
IGROV1 ovarian = system: IGROV1 ovarian
HCT-116 colon = system: HCT-116 colon
SW-620 colon = system: SW-620 colon
RXF 393 renal = system: RXF 393 renal
MCF7 breast = system: MCF7 breast
SK-OV-3 ovarian = system: SK-OV-3 ovarian
BT-549 breast = system: BT-549 breast
A549 NSCLC = system: A549 NSCLC
MDA-MB-231 breast = system: MDA-MB-231 breast
SF-539 CNS = system: SF-539 CNS
COLO 205 colon = system: COLO 205 colon
NCI-H23 lung = system: NCI-H23 lung
EKVX NSCLC = system: EKVX NSCLC
CCRF-CEM leukemia = system: CCRF-CEM leukemia
MOLT-4 leukemia = system: MOLT-4 leukemia
UACC-62 melanoma = system: UACC-62 melanoma
SN12C renal = system: SN12C renal
OVCAR-4 ovarian = system: OVCAR-4 ovarian
KM12 colon = system: KM12 colon
NCI-H322M lung = system: NCI-H322M lung
OVCAR-8 ovarian = system: OVCAR-8 ovarian
NCI-H460 NSCLC = system: NCI-H460 NSCLC
ACHN renal = system: ACHN renal
PC-3 prostate = system: PC-3 prostate
U251 glioblastoma = system: U251 glioblastoma
RPMI-8226 leukemia = system: RPMI-8226 leukemia
SR leukemia = system: SR leukemia
LOX IMVI melanoma = system: LOX IMVI melanoma
HOP-92 NSCLC = system: HOP-92 NSCLC
CAKI-1 renal = system: CAKI-1 renal
TK-10 renal = system: TK-10 renal
HL-60(TB) leukemia = system: HL-60(TB) leukemia
HT29 colon = system: HT29 colon
MDA-MB-435 melanoma = system: MDA-MB-435 melanoma
MALME-3M melanoma = system: MALME-3M melanoma
T-47D breast = system: T-47D breast
SK-MEL-2 melanoma = system: SK-MEL-2 melanoma
HCC-2998 colon = system: HCC-2998 colon
NCI-H226 lung = system: NCI-H226 lung
NCI/ADR-RES ovarian = system: NCI/ADR-RES ovarian
SNB-75 CNS = system: SNB-75 CNS

SMILES: N=C(N)c1ccc2nc(-c3cc(CC(=O)N[C@@H](CC(=O)O)C(=O)O)cc(-c4cc(S(N)(=O)=O)ccc4O)c3O)[nH]c2c1
- GI50 (SF-295 CNS): > 100 µM
- TGI (SF-295 CNS): > 100 µM
- GI50 (HCT-15 colon): > 100 µM
- TGI (HCT-15 colon): > 100 µM
- GI50 (UO-31 renal): > 100 µM
- TGI (UO-31 renal): > 100 µM
- GI50 (K-562 leukemia): > 100 µM
- TGI (K-562 leukemia): > 100 µM
- GI50 (SNB-19 CNS): > 100 µM
- TGI (SNB-19 CNS): > 100 µM
- GI50 (SF-268 CNS): > 100 µM
- TGI (SF-268 CNS): > 100 µM
- GI50 (IGROV1 ovarian): > 100 µM
- TGI (IGROV1 ovarian): > 100 µM
- GI50 (HCT-116 colon): > 100 µM
- TGI (HCT-116 colon): > 100 µM
- GI50 (SW-620 colon): > 100 µM
- TGI (SW-620 colon): > 100 µM
- GI50 (RXF 393 renal): > 100 µM
- TGI (RXF 393 renal): > 100 µM
- GI50 (MCF7 breast): > 71.5 µM
- TGI (MCF7 breast): > 100 µM
- GI50 (SK-OV-3 ovarian): > 100 µM
- TGI (SK-OV-3 ovarian): > 100 µM
- GI50 (BT-549 breast): > 100 µM
- TGI (BT-549 breast): > 100 µM
- GI50 (A549 NSCLC): > 100 µM
- TGI (A549 NSCLC): > 100 µM
- GI50 (MDA-MB-231 breast): > 100 µM
- TGI (MDA-MB-231 breast): > 100 µM
- GI50 (SF-539 CNS): > 100 µM
- TGI (SF-539 CNS): > 100 µM
- GI50 (COLO 205 colon): > 100 µM
- TGI (COLO 205 colon): > 100 µM
- GI50 (NCI-H23 lung): > 100 µM
- TGI (NCI-H23 lung): > 100 µM
- GI50 (EKVX NSCLC): > 100 µM
- TGI (EKVX NSCLC): > 100 µM
- GI50 (CCRF-CEM leukemia): > 100 µM
- TGI (CCRF-CEM leukemia): > 100 µM
- GI50 (MOLT-4 leukemia): > 100 µM
- TGI (MOLT-4 leukemia): > 100 µM
- GI50 (UACC-62 melanoma): > 100 µM
- TGI (UACC-62 melanoma): > 100 µM
- GI50 (SN12C renal): > 100 µM
- TGI (SN12C renal): > 100 µM
- GI50 (OVCAR-4 ovarian): > 100 µM
- TGI (OVCAR-4 ovarian): > 100 µM
- GI50 (KM12 colon): > 100 µM
- TGI (KM12 colon): > 100 µM
- GI50 (NCI-H322M lung): > 100 µM
- TGI (NCI-H322M lung): > 100 µM
- GI50 (OVCAR-8 ovarian): > 100 µM
- TGI (OVCAR-8 ovarian): > 100 µM
- GI50 (NCI-H460 NSCLC): > 100 µM
- TGI (NCI-H460 NSCLC): > 100 µM
- GI50 (ACHN renal): > 100 µM
- TGI (ACHN renal): > 100 µM
- GI50 (PC-3 prostate): > 100 µM
- TGI (PC-3 prostate): > 100 µM
- GI50 (U251 glioblastoma): > 100 µM
- TGI (U251 glioblastoma): > 100 µM
- GI50 (RPMI-8226 leukemia): > 100 µM
- TGI (RPMI-8226 leukemia): > 100 µM
- GI50 (SR leukemia): > 100 µM
- TGI (SR leukemia): > 100 µM
- GI50 (LOX IMVI melanoma): > 100 µM
- TGI (LOX IMVI melanoma): > 100 µM
- GI50 (HOP-92 NSCLC): > 100 µM
- TGI (HOP-92 NSCLC): > 100 µM
- GI50 (CAKI-1 renal): > 100 µM
- TGI (CAKI-1 renal): > 100 µM
- GI50 (TK-10 renal): > 100 µM
- TGI (TK-10 renal): > 100 µM
- GI50 (HL-60(TB) leukemia): > 100 µM
- TGI (HL-60(TB) leukemia): > 100 µM
- GI50 (HT29 colon): > 100 µM
- TGI (HT29 colon): > 100 µM
- GI50 (MDA-MB-435 melanoma): > 100 µM
- TGI (MDA-MB-435 melanoma): > 100 µM
- GI50 (MALME-3M melanoma): > 100 µM
- TGI (MALME-3M melanoma): > 100 µM
- GI50 (T-47D breast): > 100 µM
- TGI (T-47D breast): > 100 µM
- GI50 (SK-MEL-2 melanoma): > 100 µM
- TGI (SK-MEL-2 melanoma): > 100 µM
- GI50 (HCC-2998 colon): > 100 µM
- TGI (HCC-2998 colon): > 100 µM
- GI50 (NCI-H226 lung): > 100 µM
- TGI (NCI-H226 lung): > 100 µM
- GI50 (NCI/ADR-RES ovarian): > 100 µM
- TGI (NCI/ADR-RES ovarian): > 100 µM
- GI50 (SNB-75 CNS): > 100 µM
- TGI (SNB-75 CNS): > 100 µM
